The numbers were not newly measured in paper PMC10177510, “A Multicenter, Open-Label, Phase I/II Study of FN-1501 in Patients with Advanced Solid Tumors” (Cancers, 2023), which cites them from elsewhere.

One may read the IC50 as the concentration that inhibits the measured activity by half.

One series deals with MOLM-13. On the set-up: method as in data on file, Fosun Pharma. The note with it: ref data on file, Fosun Pharma; cited from earlier work.
Another series has as its system MOLM-13 xenograft. The note with it: preclinical, no reference given; cited from earlier work.
The conditions of series [1]: preclinical, no reference given, cited from earlier work.

≈ marks a conversion by molar mass, not a printed value. Like-named read-outs stand apart in the source and are kept apart here.

As for `CN1CCN(Cc2ccc(NC(=O)c3[nH]ncc3Nc3ncnc4[nH]ccc34)cc2)CC1` [FN-1501], the IC50 with MOLM-13 was 5.2 ng/mL (≈ 0.0121 µM). Also, the “Dose at which tumor growth reached stasis” value with MOLM-13 xenograft was 20 mg/kg. Further, the figures for the “Css,u in mice” value in series [1] (5 mg) and in series [1] (20 mg) were “roughly 5 ng/mL” and approximately 50 ng/mL, respectively.
